# US6342515B1, “Remedy for neurodegenerative diseases” (Dainippon Pharmaceutical Co., Ltd., priority 1997, dated 2002)
# Marks after values point to notes of the source that are not given here.
# How the values were obtained:
# C57 black male mice [1] = test: Inhibitory effect on MPTP-induced dopaminergic neurodegeneration (striatal DA and DOPAC by HPLC); type: in vivo, mouse; conditions: for Inhibitory Rate (%) DA / Inhibitory Rate (%) DOPAC / DA (ng/g tissue) / DOPAC (ng/g tissue): striatum, 24 hours after last MPTP; for DA (ng/g tissue) / DOPAC (ng/g tissue): mean ± standard error; for inhibitory effect on the MPTP-induced reduction in the contents of dopamine and DOPAC in the striatum: po
# Procedure: (§1) In each experiment, the contents of monoamine neurotransmitters and metabolites thereof in the striatum were measured by high performance liquid chromatography (HPLC) method. HPLC was carried out using a system consisting of a pump (L-6000, manufactured by Hitachi, Ltd., Japan), an autoinjector, a column (Cosmosil 5C18-A, manufactured by Nacalai Tesque, Inc., Japan; 4.6Ø×250 mm), and an electrochemical detector (ECD-100, manufactured by Eicom Corporation, Japan) under the following conditions.
# In addition, the statistical analysis was carried out by Dunnett's multiple comparison test.
# (§2) C57 black male mice (11-week-old) were used in the experiment. MPTP hydrochloride was dissolved in a physiological saline solution in a concentration of 3 mg/ml, and the resulting solution was intraperitoneally injected to the mice in a volume of 0.1 ml per 10 g of body weight, i.e., at a dose of 30 mg/kg, once a day for 8 days repetitively. […]
# (§3) The striatum excised was homogenized with a 50-fold volume of 0.1 N formic acid:acetone (15:85) containing an internal standard substance (5-hydroxytriptophol; 20 ng/ml), and the mixture was centrifuged under cooling. A fixed amount of the supernatant was collected and evaporated to dryness under stream of nitrogen gas. Then, the resultant was dissolved in a 0.01 N acetic acid and centrifuged, and then the contents of various monoamine neurotransmitters and metabolites thereof in the supernatant were measured by HPLC being equipped with an electrochemical detector.
# MPTP hydrochloride was intraperitoneally administered to C57 black male mice (11-week-old) at a dose of 30 mg/kg once a day for 8 days repetitively in the same manner as in Experiment 1. The test drugs, i.e., antiepileptic agents, were suspended in a 0.5% aqueous tragacanth solution, and the resultant was orally administered to the mice in a volume of 0.1 ml per 10 g of body weight 30 minutes prior to the MPTP administration for 8 days. […] The contents of dopamine and a metabolite thereof in the striatum were measured in the same manner as in Experiment 1. […] The dosages for each administration of various antiepileptic agents are shown below. […] Forsch. (Drug Res.), 30, 477 (1980) for other antiepileptic agents were employed, respectively.
# The inhibitory rate was calculated from the values in the normal animal group, the vehicle-treated group and the test drug-treated group. The values in Table represent a mean value ± a standard error, and the marks * and ** mean that there is a significant difference from the value of the vehicle-treated group with p<0.05 and p<0.01, respectively.
# The perpendicular lines in the figures represent standard errors, and the marks * and ** mean that there is a significant difference from the value of the vehicle-treated group with p<0.05 and p<0.01, respectively.
# C57 black mice = conditions: MPTP hydrochloride 15 mg/kg s.c. once; cited from earlier work
# C57 black male mice [2] = test: Preparation of animal model for Parkinson's disease: striatal monoamine neurotransmitters and metabolites after MPTP; type: in vivo, mouse; conditions: MPTP hydrochloride 30 mg/kg ip once a day for 8 days
# Procedure: as §1, §2, §3
# The changes in the contents of various neurotransmitters and metabolites thereof 24 hours after the last MPTP administration are shown in FIG. 1. The number of animals in each group is 8, and the perpendicular lines in the figures represent standard errors, and the mark ** means that there is a significant difference from the value of the control group (the group treated with a physiological saline solution) with p<0.01.
# [3] = 14-days group (14 days after the last MPTP administration), in words (FIG. 2)
# [4] = 24-hours group, in words (Table 1)
# [5] = 24 hours after last administration (FIG. 1)
# [6] = 100 mg/kg po for 8 days, 100 mg/kg
# [7] = 100 mg/kg po for 8 days, listed as zonisamide, 100 mg/kg
structure (smiles),measurement,setting,value
"CC(=O)Nc1nnc(S(N)(=O)=O)s1 [AZA, Acetazolamide]",Inhibitory Rate (%) DA,C57 black male mice [1]; 100 mg/kg po for 8 days,−4.1%
same,Inhibitory Rate (%) DOPAC,C57 black male mice [1]; 100 mg/kg po for 8 days,1.2%
same,DA (ng/g tissue),C57 black male mice [1]; 100 mg/kg po for 8 days,1803 ± 428 ng/g tissue
same,DOPAC (ng/g tissue),C57 black male mice [1]; 100 mg/kg po for 8 days,138 ± 23 ng/g tissue
"NC(=O)N1c2ccccc2C=Cc2ccccc21 [CBZ, Carbamazepine]",inhibitory effect on dopamine depletion induced by MPTP,C57 black mice,does not show such effect
same,inhibitory effect on the MPTP-induced reduction in the contents of dopamine and DOPAC in the striatum,C57 black male mice [1]; [3],did not show any significant inhibitory effect
same,inhibitory effect on the MPTP-induced reduction in the contents of dopamine and DOPAC in the striatum,C57 black male mice [1]; [4],did not show any significant inhibitory effect
same,Inhibitory Rate (%) DA,C57 black male mice [1]; 20 mg/kg po for 8 days,25.0%
same,DA (ng/g tissue),C57 black male mice [1]; 20 mg/kg po for 8 days,3087 ± 453 ng/g tissue
same,DOPAC (ng/g tissue),C57 black male mice [1]; 20 mg/kg po for 8 days,251 ± 36 ng/g tissue
same,Inhibitory Rate (%) DA,C57 black male mice [1]; 60 mg/kg po for 8 days,20.8%
same,Inhibitory Rate (%) DOPAC,C57 black male mice [1]; 60 mg/kg po for 8 days,23.0%
same,DA (ng/g tissue),C57 black male mice [1]; 60 mg/kg po for 8 days,2894 ± 750 ng/g tissue
same,DOPAC (ng/g tissue),C57 black male mice [1]; 60 mg/kg po for 8 days,202 ± 52 ng/g tissue
"CN1C(=O)CN=C(c2ccccc2)c2cc(Cl)ccc21 [DZP, Diazepam]",Inhibitory Rate (%) DA,C57 black male mice [1]; 5 mg/kg po for 8 days,24.3%
same,Inhibitory Rate (%) DOPAC,C57 black male mice [1]; 5 mg/kg po for 8 days,18.3%
same,DA (ng/g tissue),C57 black male mice [1]; 5 mg/kg po for 8 days,3356 ± 451 ng/g tissue
same,DOPAC (ng/g tissue),C57 black male mice [1]; 5 mg/kg po for 8 days,208 ± 28 ng/g tissue
"CCC1(C)CC(=O)NC1=O (centres unmarked) [ESM, Ethosuximide]",Inhibitory Rate (%) DA,C57 black male mice [1]; 600 mg/kg po for 8 days,−18.7%
same,Inhibitory Rate (%) DOPAC,C57 black male mice [1]; 600 mg/kg po for 8 days,−12.9%
same,DA (ng/g tissue),C57 black male mice [1]; 600 mg/kg po for 8 days,1008 ± 182 ng/g tissue
same,DOPAC (ng/g tissue),C57 black male mice [1]; 600 mg/kg po for 8 days,80 ± 10 ng/g tissue
"Nc1nnc(-c2cccc(Cl)c2Cl)c(N)n1 [LTG, 3,5-diamino-6-(2,3-dichlorophenyl)-1,2,4-triazine]",inhibitory effect on dopamine depletion induced by MPTP,C57 black mice,show an inhibitory effect
same,Inhibitory Rate (%) DA,C57 black male mice [1]; 30 mg/kg po for 8 days,51.6%
same,Inhibitory Rate (%) DOPAC,C57 black male mice [1]; 30 mg/kg po for 8 days,34.1%
same,DA (ng/g tissue),C57 black male mice [1]; 30 mg/kg po for 8 days,4844 ± 676** ng/g tissue
same,DOPAC (ng/g tissue),C57 black male mice [1]; 30 mg/kg po for 8 days,273 ± 31** ng/g tissue
"CN1CC=C(c2ccccc2)CC1 [MPTP, 1-methyl-4-phenyl-1,2,3,6-tetrahydropyridine]","contents of dopamine (DA), homovanillic acid (HVA) and DOPAC in the striatum",C57 black male mice [2]; [5],significantly reduced
same,"contents of noradrenaline (NA), serotonin (5HT), MOPEG and 5HIAA in the striatum",C57 black male mice [2]; [5],never affected
same,reduction in the contents of dopamine and metabolites thereof in the striatum,C57 black male mice [2]; 14 days after last administration (FIG. 2),irreversible
"CCC1(c2ccccc2)C(=O)NC(=O)NC1=O [PB, Phenobarbital]",Inhibitory Rate (%) DA,C57 black male mice [1]; 40 mg/kg po for 8 days,23.5%
same,Inhibitory Rate (%) DOPAC,C57 black male mice [1]; 40 mg/kg po for 8 days,16.3%
same,DA (ng/g tissue),C57 black male mice [1]; 40 mg/kg po for 8 days,3310 ± 544 ng/g tissue
same,DOPAC (ng/g tissue),C57 black male mice [1]; 40 mg/kg po for 8 days,200 ± 32 ng/g tissue
"O=C1NC(=O)C(c2ccccc2)(c2ccccc2)N1 [PHT, Phenytoin]",inhibitory effect on dopamine depletion induced by MPTP,C57 black mice,show an inhibitory effect
same,Inhibitory Rate (%) DA,C57 black male mice [1]; 30 mg/kg po for 8 days,37.4%
same,Inhibitory Rate (%) DOPAC,C57 black male mice [1]; 30 mg/kg po for 8 days,30.2%
same,DA (ng/g tissue),C57 black male mice [1]; 30 mg/kg po for 8 days,4073 ± 454* ng/g tissue
same,DOPAC (ng/g tissue),C57 black male mice [1]; 30 mg/kg po for 8 days,257 ± 30* ng/g tissue
"CCCC(CCC)C(=O)[O-].[Na+] [VPA, Sodium valproate]",Inhibitory Rate (%) DA,C57 black male mice [1]; 800 mg/kg po for 8 days,17.5%
same,Inhibitory Rate (%) DOPAC,C57 black male mice [1]; 800 mg/kg po for 8 days,13.2%
same,DA (ng/g tissue),C57 black male mice [1]; 800 mg/kg po for 8 days,2984 ± 468 ng/g tissue
same,DOPAC (ng/g tissue),C57 black male mice [1]; 800 mg/kg po for 8 days,187 ± 29 ng/g tissue
"NS(=O)(=O)Cc1noc2ccccc12 [ZNS, 3-sulfamoylmethyl-1,2-benzisoxazole]",inhibitory effect on the MPTP-induced reduction in the contents of dopamine and DOPAC in the striatum,C57 black male mice [1]; [3],dose-dependent inhibitory effect
same,inhibitory effect on the MPTP-induced reduction in the contents of dopamine and DOPAC in the striatum,C57 black male mice [1]; [4],dose-dependent inhibitory effect
same,Inhibitory Rate (%) DA,C57 black male mice [1]; 10 mg/kg po for 8 days,22.3%
same,Inhibitory Rate (%) DOPAC,C57 black male mice [1]; 10 mg/kg po for 8 days,29.8%
same,DA (ng/g tissue),C57 black male mice [1]; 10 mg/kg po for 8 days,3797 ± 201* ng/g tissue
same,DOPAC (ng/g tissue),C57 black male mice [1]; 10 mg/kg po for 8 days,221 ± 11* ng/g tissue
same,Inhibitory Rate (%) DA,C57 black male mice [1]; 30 mg/kg po for 8 days,80.3%
same,Inhibitory Rate (%) DOPAC,C57 black male mice [1]; 30 mg/kg po for 8 days,82.1%
same,DA (ng/g tissue),C57 black male mice [1]; 30 mg/kg po for 8 days,7373 ± 685** ng/g tissue
same,DOPAC (ng/g tissue),C57 black male mice [1]; 30 mg/kg po for 8 days,370 ± 27** ng/g tissue
same,Inhibitory Rate (%) DA,C57 black male mice [1]; [6],97.2%
same,Inhibitory Rate (%) DOPAC,C57 black male mice [1]; [6],109.1%
same,Inhibitory Rate (%) DA,C57 black male mice [1]; [7],~100%
same,Inhibitory Rate (%) DOPAC,C57 black male mice [1]; [7],~100%
same,DA (ng/g tissue),C57 black male mice [1]; 100 mg/kg po for 8 days,8434 ± 336** ng/g tissue
same,DOPAC (ng/g tissue),C57 black male mice [1]; 100 mg/kg po for 8 days,447 ± 24** ng/g tissue
